Data published in publication PMC9814779, “A triple farnesoid X receptor and peroxisome proliferator-activated receptor α/δ activator reverses hepatic fibrosis in diet-induced NASH in mice” (Communications Chemistry, 2020).

Tested on: GAN DIO-NASH mice
Experiment: DIO NASH model in mice (GAN diet)
Details: for animals with fibrosis worsening / animals with improvement in lobular inflammation / animals with reversed fibrosis: animals/group; for inflammatory cells and inflammatory foci in the liver: compared to vehicle; for liver Galectin-3 (Gal3) and liver CD45: markers of inflammation
Procedure: The DIO NASH model was performed by the contract research organization Gubra (Hørsholm, Denmark) on a fee-for-service basis. All animal experiments were conducted in accordance with Gubra’s bioethical guidelines, which are fully compliant to internationally accepted principles for the care and use of laboratory animals. The animals were checked minimum once daily for signs of abnormal behavior, abnormal locomotor activity, ataxia, or clinical signs of disease (lack of grooming, raised fur, signs of pain upon handling, loss of excessive body weight).
Male C57BL/6JRj mice (purchased from Janvier Labs, France at 5 weeks of age) were used for the study. […] Mice received the Gubra AMLN NASH (GAN; D09100310, Research Diet, US; 40% fat (primarily palm oil), 40% carbohydrate (20% fructose), and 2% cholesterol) diet for 46 weeks before start of the treatment. Prior to treatment, all animals underwent liver biopsy for histological conformation of liver disease (steatosis score ≥2 and fibrosis stage ≥1) using the non-alcoholic fatty liver disease activity scoring (NAS) and fibrosis staging system. Randomization and stratification to treatment was performed according to quantitative collagen staining (PSR). GAN DIO-NASH mice (n = 16 per group) received treatment (PO) with vehicle, OCA (30 mg/kg), or 41 (10 mg/kg, BID) for 12 weeks. Water containing 1% HPMC/Tween 80 (99:1) served as vehicle. Mice were then sacrificed by cardiac puncture under isoflurane anesthesia for histopathological and biochemical analysis.
For pre-biopsies, mice were anesthetized by inhalation anesthesia using isoflurane (2–3%). A small abdominal incision was made in the midline and the left lateral lobe of the liver was exposed. A cone-shaped wedge of liver tissue (approximately 50 mg) was excised from the distal portion of the lobe and fixated in 10% neutral buffered formalin (10%) for histology. The cut surface of the liver was instantly electrocoagulated using bipolar coagulation (ERBE VIO 100 electrosurgical unit). The liver was returned to the abdominal cavity, the abdominal wall was sutured, and the skin was closed with staplers. […] TG, TC, ALT, and AST levels were determined from blood samples collected at week 4 of treatment in heparinized tubes. Plasma was separated and stored at −80 °C until analysis. […] After termination by heart puncture, livers were collected and weighed. Specific liver samples and biopsies were dissected and processed. The liver was divided into left lateral lobe, medial lobe, right lateral lobe, and caudal lobe. The left lateral lobe was used for the pre-biopsy (not applicable at termination). The liver post biopsy (~200 mg, <0.7 × 0.5 cm) was cut 4 mm from the pre-biopsy site and with an edge. The tissue was collected in paraformaldehyde. The medial lobe was sectioned and snap-frozen in liquid nitrogen for later analysis. One piece (25 ± 5 mg) was dissected and used for TG/TC analysis. […] Liver samples were fixed in formalin, paraffin embedded, and sections were stained. For H&E staining, the slides were incubated in Mayer’s Hematoxylin (Dako), washed in tap water, stained in Eosin Y solution (Sigma-Aldrich), […], and cover-slipped. For PSR staining, the slides were incubated in Weigert’s iron hematoxylin (Sigma-Aldrich), washed in tap water, stained in PSR (Sigma-Aldrich), and washed twice in acidified water. Excess water was removed by shaking the slides, and the slides were then dehydrated in three changes of 100% ethanol, cleared in xylene, and cover-slipped. […] Briefly, after antigen retrieval and blocking of endogenous peroxidase activity, slides were incubated with primary antibody. The primary antibody was detected using a polymeric horseradish peroxidase–linker antibody conjugate. Next, the primary antibody was visualized with 3,3′diaminobenzidine as chromogen. Finally, sections were counterstained in hematoxylin and cover-slipped. Samples were scored for NAS following the criteria outlined in[37].

[1] = 41 10 mg/kg b.i.d., OCA 30 mg/kg
[2] = 12 weeks of treatment, 41 10 mg/kg b.i.d., OCA 30 mg/kg
[3] = 12 weeks, 41 10 mg/kg b.i.d., OCA 30 mg/kg

Row | Compound | plasma biochemical parameters after 4 weeks of treatment [1] | plasma ALT, AST and triglycerides (TG) at termination [2] | plasma total cholesterol (TC) at termination (12 weeks of treatment, OCA 30 mg/kg) | liver weight, liver TG and liver TC content [3] | steatosis, hepatic fat content [3] | animals not completing the study (OCA 30 mg/kg, one animal) | animals with fibrosis worsening [3] | animals with improvement in lobular inflammation [3] | animals with reversed fibrosis [3] | inflammatory cells and inflammatory foci in the liver (12 weeks) | liver Galectin-3 (Gal3) and liver CD45 (12 weeks) | food intake and body weight (12 weeks, 41 10 mg/kg b.i.d., vs. OCA or vehicle) | liver picrosirius red (PSR), pre vs. post treatment (after the treatment period, 41 10 mg/kg b.i.d.) | fibrosis markers PSR, Col1a1 and α-SMA (compared to vehicle-treated animals, 12 weeks)
1 | CC[C@H]1[C@@H](O)[C@@H]2[C@H](CC[C@]3(C)[C@@H]([C@H](C)CCC(=O)O)CC[C@@H]23)[C@@]2(C)CC[C@@H](O)C[C@@H]12 [OCA, 6α-ethylchenodeoxycholic acid, reference compound] | reduced total cholesterol (TC) plasma levels | not different between groups | reduced TC levels | lowered liver weight, liver TG, and liver TC | strongly reduced hepatic fat content and steatosis score | found dead during the second week of the treatment phase | 4/15 | 8/15 | 2/15 | decreased the number of inflammatory cells and inflammatory foci | reduced by both treatments | – | – | –
2 | CC(C)(C)c1ccc(C(=O)Nc2cccc(CCC(=O)O)c2)c(NC(=O)c2ccc(-c3ccco3)cc2)c1 [compound 41, 3-(3-[4-{tert-Butyl}-2-{4-(2-furyl)}benzamido]phenyl)propanoic acid] | not significantly different between the groups | not different between groups | – | did not differ from vehicle-treated mice | no pronounced effect on steatosis | – | 1/16 | 5/16 | 6/16 | decreased the number of inflammatory cells and inflammatory foci | reduced by both treatments | no difference in food intake and body weight | significant reduction of liver picrosirius red (PSR) | decreased
